Laboratory results as given in PubChem BioAssay (NCI).
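Five compound concentrations were applied to cells in 96-well plates for 48 hours; endpoints were derived by simple linear interpolation of the resulting dose-response curve. The concentration for 50% growth inhibition is given as GI50. TGI is the concentration that stops growth completely.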

Columns and labels:
Assay in all cases: NCI-60 cell line screen, 48 h
NCI-H226 lung = system: NCI-H226 lung
NCI-H23 lung = system: NCI-H23 lung
NCI-H460 lung = system: NCI-H460 lung
NCI-H522 lung = system: NCI-H522 lung
NCI/ADR-RES ovarian = system: NCI/ADR-RES ovarian
OVCAR-4 ovarian = system: OVCAR-4 ovarian
OVCAR-5 ovarian = system: OVCAR-5 ovarian
PC-3 prostate = system: PC-3 prostate
RPMI-8226 leukemia = system: RPMI-8226 leukemia
RXF 393 renal = system: RXF 393 renal
SF-268 CNS = system: SF-268 CNS
SF-295 CNS = system: SF-295 CNS
SF-539 CNS = system: SF-539 CNS
SK-MEL-2 melanoma = system: SK-MEL-2 melanoma
SK-MEL-28 melanoma = system: SK-MEL-28 melanoma
SK-MEL-5 melanoma = system: SK-MEL-5 melanoma
SK-OV-3 ovarian = system: SK-OV-3 ovarian
SN12C renal = system: SN12C renal
SNB-19 CNS = system: SNB-19 CNS
SNB-75 CNS = system: SNB-75 CNS
SR leukemia = system: SR leukemia
SW-620 colon = system: SW-620 colon
T-47D breast = system: T-47D breast
TK-10 renal = system: TK-10 renal
U251 CNS = system: U251 CNS
UACC-257 melanoma = system: UACC-257 melanoma
UACC-62 melanoma = system: UACC-62 melanoma
UO-31 renal = system: UO-31 renal

COc1ccc(N(C)c2cc(C#N)nc3ccccc23)cc1N
TGI (NCI-H226 lung): > 100 µM | GI50 (NCI-H23 lung): < 0.01 µM | TGI (NCI-H23 lung): > 54.1 µM | GI50 (NCI-H460 lung): < 0.01 µM | TGI (NCI-H460 lung): 4.56 µM | GI50 (NCI-H522 lung): < 0.01 µM | TGI (NCI-H522 lung): < 0.01 µM | GI50 (NCI/ADR-RES ovarian): < 0.01 µM | TGI (NCI/ADR-RES ovarian): < 0.01 µM | GI50 (OVCAR-4 ovarian): 3.69 µM | TGI (OVCAR-4 ovarian): > 100 µM | GI50 (OVCAR-5 ovarian): < 0.01 µM | TGI (OVCAR-5 ovarian): > 100 µM | GI50 (PC-3 prostate): < 0.01 µM | TGI (PC-3 prostate): > 100 µM | GI50 (RPMI-8226 leukemia): < 0.01 µM | TGI (RPMI-8226 leukemia): > 54.1 µM | GI50 (RXF 393 renal): < 0.01 µM | TGI (RXF 393 renal): > 100 µM | GI50 (SF-268 CNS): < 0.01 µM | TGI (SF-268 CNS): > 100 µM | GI50 (SF-295 CNS): < 0.01 µM | TGI (SF-295 CNS): > 100 µM | GI50 (SF-539 CNS): < 0.01 µM | TGI (SF-539 CNS): < 0.01 µM | GI50 (SK-MEL-2 melanoma): < 0.01 µM | TGI (SK-MEL-28 melanoma): > 100 µM | GI50 (SK-MEL-5 melanoma): < 0.01 µM | TGI (SK-MEL-5 melanoma): < 0.01 µM | GI50 (SK-OV-3 ovarian): < 0.0187 µM | TGI (SK-OV-3 ovarian): > 100 µM | GI50 (SN12C renal): < 0.01 µM | TGI (SN12C renal): > 34.3 µM | GI50 (SNB-19 CNS): < 0.01 µM | TGI (SNB-19 CNS): > 100 µM | GI50 (SNB-75 CNS): < 0.01 µM | TGI (SNB-75 CNS): > 67.7 µM | GI50 (SR leukemia): < 0.01 µM | TGI (SR leukemia): > 73.9 µM | GI50 (SW-620 colon): < 0.01 µM | TGI (SW-620 colon): > 100 µM | GI50 (T-47D breast): 7.61 µM | TGI (T-47D breast): > 100 µM | GI50 (TK-10 renal): 19.6 µM | TGI (TK-10 renal): > 100 µM | GI50 (U251 CNS): < 0.01 µM | TGI (U251 CNS): > 100 µM | GI50 (UACC-257 melanoma): 8.62 µM | TGI (UACC-257 melanoma): > 100 µM | GI50 (UACC-62 melanoma): < 0.01 µM | TGI (UACC-62 melanoma): > 100 µM | GI50 (UO-31 renal): < 0.01 µM | TGI (UO-31 renal): > 100 µM
